According to US12655116B2, “Substituted isophthalic acid diamides” (Bayer Aktiengesellschaft, priority 2020, dated 2026):

Tests used:
[1] = system: VIOTR; experiment: Pre-emergence herbicidal action against VIOTR; format: in vivo, Viola tricolor; conditions: Viola tricolor, 504 h; for pest or weed control at 80 g/ha: dosage 80 g/ha
How it was run: (§1)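 Pre-emergence soil-surface spray of formulated compound (WP or EC; 600 to 800 l/ha; 0.2% wetting agent) over seeds sown in sandy loam. After 3 weeks under greenhouse conditions, damage is estimated visually in percent against untreated plants.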

[2] = system: AMARE; experiment: Post-emergence herbicidal action against AMARE; format: in vivo, Amaranthus retroflexus; conditions: Amaranthus retroflexus, 504 h, visual assessment about 3 weeks after treatment, 100% = plants have died, 0% = like control plants
How it was run: (§2)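 Spray, one-leaf stage: WP or EC compound in water, 600–800 l/ha, 0.2% wetting agent. Plants held about 3 weeks in the greenhouse, then visually rated in percent of kill compared with untreated controls.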

[3] = system: ABUTH; experiment: Pre-emergence herbicidal action against ABUTH; format: in vivo, Abutilon theophrasti; conditions: Abutilon theophrasti, 504 h; for pest or weed control at 80 g/ha: scored visually after 3 weeks vs untreated controls (100% = plants have died, 0% = like control plants)
How it was run: as §1

[4] = system: AMARE; experiment: Pre-emergence herbicidal action against AMARE; format: in vivo, Amaranthus retroflexus; conditions: Amaranthus retroflexus, 504 h, 100% = plants have died, 0% = like control plants
How it was run: as §1

[5] = system: HORMU; experiment: Pre-emergence herbicidal action against HORMU; format: in vivo, Hordeum murinum; conditions: Hordeum murinum, 504 h, pre-emergence
How it was run: as §1

[6] = system: MATIN; experiment: Post-emergence herbicidal action against MATIN; format: in vivo, Matricaria inodora; conditions: Tripleurospermum inodorum, 504 h; for pest or weed control at 20 g/ha: dosage 20 g/ha
How it was run: as §2

[7] = system: VIOTR; experiment: Post-emergence herbicidal action against VIOTR; format: in vivo, Viola tricolor; conditions: Viola tricolor, 504 h
How it was run: as §2

[8] = system: SETVI; experiment: Pre-emergence herbicidal action against SETVI; format: in vivo, Setaria viridis; conditions: Setaria viridis, 504 h; for pest or weed control at 80 g/ha: dosage 80 g/ha
How it was run: as §1

[9] = system: PHBPU; experiment: Pre-emergence herbicidal action against PHBPU; format: in vivo, Pharbitis purpurea; conditions: Ipomoea purpurea, 504 h, dosage 80 g/ha
How it was run: as §1

[10] = system: PHBPU; experiment: Post-emergence herbicidal action against PHBPU; format: in vivo, Pharbitis purpurea; conditions: Ipomoea purpurea, 504 h
How it was run: as §2

[11] = system: DIGSA; experiment: Pre-emergence herbicidal action against DIGSA; format: in vivo, Digitaria sanguinalis; conditions: Digitaria sanguinalis, 504 h; for pest or weed control at 80 g/ha: dosage 80 g/ha
How it was run: as §1

[12] = system: ABUTH; experiment: Post-emergence herbicidal action against ABUTH; format: in vivo, Abutilon theophrasti; conditions: Abutilon theophrasti, 504 h, visual assessment about 3 weeks after treatment vs untreated controls; for pest or weed control at 20 g/ha: dosage 20 g/ha
How it was run: as §2

[13] = system: ECHCG; experiment: Pre-emergence herbicidal action against ECHCG; format: in vivo, Echinochloa crus-galli; conditions: Echinochloa crus-galli, 504 h
How it was run: as §1

[14] = system: DIGSA; experiment: Post-emergence herbicidal action against DIGSA; format: in vivo, Digitaria sanguinalis; conditions: Digitaria sanguinalis, 504 h
How it was run: as §2

[15] = system: ALOMY; experiment: Pre-emergence herbicidal action against ALOMY; format: in vivo, Alopecurus myosuroides; conditions: Alopecurus myosuroides, 504 h, pre-emergence
How it was run: as §1

[16] = system: ALOMY; experiment: Post-emergence herbicidal action against ALOMY; format: in vivo, Alopecurus myosuroides; conditions: Alopecurus myosuroides, 504 h, visual assessment about 3 weeks after treatment vs untreated controls; for pest or weed control at 20 g/ha: dosage 20 g/ha
How it was run: as §2

[17] = system: AVEFA; experiment: Pre-emergence herbicidal action against AVEFA; format: in vivo, Avena fatua; conditions: Avena fatua, 504 h, pre-emergence
How it was run: as §1

[18] = system: AVEFA; experiment: Post-emergence herbicidal action against AVEFA; format: in vivo, Avena fatua; conditions: Avena fatua, 504 h, visual assessment about 3 weeks after treatment, 100% = plants have died, 0% = like control plants
How it was run: as §2

[19] = system: STEME; experiment: Post-emergence herbicidal action against STEME; format: in vivo, Stellaria media; conditions: Stellaria media, 504 h
How it was run: as §2

[20] = system: STEME; experiment: Pre-emergence herbicidal action against STEME; format: in vivo, Stellaria media; conditions: Stellaria media, 504 h; for pest or weed control at 80 g/ha: dosage 80 g/ha
How it was run: as §1

[21] = system: HORMU; experiment: Post-emergence herbicidal action against HORMU; format: in vivo, Hordeum murinum; conditions: Hordeum murinum, 504 h; for pest or weed control at 20 g/ha: dosage 20 g/ha
Experimental: Seeds of monocotyledonous and dicotyledonous weed and crop plants are laid out in sandy loam soil in wood-fiber pots, covered with soil and cultivated in a greenhouse under good growth conditions. 2 to 3 weeks after sowing, the test plants are treated at the one-leaf stage. The compounds of the invention, formulated in the form of wettable powders (WP) or as emulsion concentrates (EC), are then sprayed onto the green parts of the plants in the form of an aqueous suspension or emulsion at a water application rate equivalent to 600 to 800 l/ha, with addition of 0.2% wetting agent. After the test plants have been left to stand in the greenhouse under optimal growth conditions for about 3 weeks, the action of the preparations is assessed visually in comparison to untreated controls (herbicidal action in percent (%): 100% activity=the plants have died, 0% activity=like control plants). […] The tables below illustrate, in an illustrative manner, the post-emergence herbicidal action of the compounds of the invention, the herbicidal activity being stated in percent.

[22] = system: ECHCG; experiment: Post-emergence herbicidal action against ECHCG; format: in vivo, Echinochloa crus-galli; conditions: Echinochloa crus-galli, 504 h; for pest or weed control at 20 g/ha: dosage 20 g/ha
How it was run: as §2

[23] = system: POLCO; experiment: Pre-emergence herbicidal action against POLCO; format: in vivo, Polygonum convolvulus; conditions: Fallopia convolvulus, 504 h, dosage 80 g/ha
How it was run: as §1

[24] = system: MATIN; experiment: Pre-emergence herbicidal action against MATIN; format: in vivo, Matricaria inodora; conditions: Tripleurospermum inodorum, 504 h; for pest or weed control at 80 g/ha: dosage 80 g/ha
How it was run: as §1

[25] = system: SETVI; experiment: Post-emergence herbicidal action against SETVI; format: in vivo, Setaria viridis; conditions: Setaria viridis, 504 h
How it was run: as §2

[26] = system: VERPE; experiment: Post-emergence herbicidal action against VERPE; format: in vivo, Veronica persica; conditions: Veronica persica, 504 h, 80 g/ha
How it was run: as §2

[27] = system: VERPE; experiment: Pre-emergence herbicidal action against VERPE; format: in vivo, Veronica persica; conditions: Veronica persica, 504 h, dosage 320 g/ha
How it was run: as §1

[28] = scored visually after 3 weeks vs untreated controls
[29] = 320 g/ha, scored visually after 3 weeks, 100% = plants have died, 0% = like control plants

## CCn1nnnc1NC(=O)c1ccc(C(F)(F)F)c(C(=O)NC2CC2)c1Cl [Example 2-131]
[1]; dosage 20 g/ha
  pest or weed control at 20 g/ha: 100%
[1]
  pest or weed control at 80 g/ha: 100%
[2]; 20 g/ha
  pest or weed control at 20 g/ha: 100%
[3]
  pest or weed control at 80 g/ha: 100%
[3]; dosage 20 g/ha, scored visually after 3 weeks vs untreated controls, 100% = plants have died, 0% = like control plants, read-out: Pre-emergence action against ABUTH (herbicidal activity in percent)
  pest or weed control at 20 g/ha: 100%
[4]; 20 g/ha, scored visually after 3 weeks vs untreated controls
  pest or weed control at 20 g/ha: 100%
[4]; [28]
  pest or weed control at 80 g/ha: 100%
[5]; 80 g/ha
  pest or weed control at 80 g/ha: 80%
[6]; dosage 5 g/ha
  pest or weed control at 5 g/ha: 90%
[6]
  pest or weed control at 20 g/ha: 100%
[7]; 5 g/ha
  pest or weed control at 5 g/ha: 100%
[7]; 20 g/ha
  pest or weed control at 20 g/ha: 100%
[8]; dosage 20 g/ha
  pest or weed control at 20 g/ha: 80%
[8]
  pest or weed control at 80 g/ha: 100%
[9]
  pest or weed control at 80 g/ha: 80%
[10]; dosage 20 g/ha
  pest or weed control at 20 g/ha: 80%
[11]; dosage 20 g/ha
  pest or weed control at 20 g/ha: 90%
[11]
  pest or weed control at 80 g/ha: 100%
[12]
  pest or weed control at 20 g/ha: 90%
[13]
  pest or weed control at 80 g/ha: 100%
[14]; 5 g/ha
  pest or weed control at 5 g/ha: 90%
[14]
  pest or weed control at 20 g/ha: 90%
[15]; 80 g/ha, scored visually after 3 weeks vs untreated controls (100% = plants have died, 0% = like control plants)
  pest or weed control at 80 g/ha: 100%
[15]; 20 g/ha, scored visually after 3 weeks, 100% = plants have died, 0% = like control plants
  pest or weed control at 20 g/ha: 90%
[16]
  pest or weed control at 20 g/ha: 80%
[17]
  pest or weed control at 80 g/ha: 100%
[18]; 5 g/ha
  pest or weed control at 5 g/ha: 80%
[18]; 20 g/ha
  pest or weed control at 20 g/ha: 80%
[19]
  pest or weed control at 20 g/ha: 90%
[19]; dosage 5 g/ha
  pest or weed control at 5 g/ha: 90%
[20]; dosage 20 g/ha
  pest or weed control at 20 g/ha: 100%
[20]
  pest or weed control at 80 g/ha: 100%
[21]
  pest or weed control at 20 g/ha: 100%
[22]
  pest or weed control at 20 g/ha: 80%
[23]
  pest or weed control at 80 g/ha: 90%
[24]; dosage 20 g/ha
  pest or weed control at 20 g/ha: 90%
[24]
  pest or weed control at 80 g/ha: 100%
[25]; dosage 5 g/ha
  pest or weed control at 5 g/ha: 90%
[25]; dosage 20 g/ha
  pest or weed control at 20 g/ha: 100%

## CCNC(=O)c1c(C(F)(F)F)ccc(C(=O)Nc2nnc(C)o2)c1Cl [Example 6-117]
[1]
  pest or weed control at 80 g/ha: 80%
[1]; dosage 320 g/ha
  pest or weed control at 320 g/ha: 100%
[2]; 80 g/ha
  pest or weed control at 80 g/ha: 80%
[26]
  pest or weed control at 80 g/ha: 80%
[3]
  pest or weed control at 80 g/ha: 100%
[3]; Dosage: 320 g/ha, scored visually after 3 weeks, 100% = plants have died, 0% = like control plants
  pest or weed control at 320 g/ha: 100%
[4]; [28]
  pest or weed control at 80 g/ha: 100%
[4]; 320 g/ha, scored visually after 3 weeks
  pest or weed control at 320 g/ha: 100%
[5]; 320 g/ha
  pest or weed control at 320 g/ha: 100%
[6]
  pest or weed control at 20 g/ha: 90%
[6]; dosage 80 g/ha
  pest or weed control at 80 g/ha: 90%
[7]; 80 g/ha
  pest or weed control at 80 g/ha: 80%
[8]
  pest or weed control at 80 g/ha: 100%
[8]; dosage 320 g/ha
  pest or weed control at 320 g/ha: 100%
[10]; dosage 80 g/ha
  pest or weed control at 80 g/ha: 80%
[11]
  pest or weed control at 80 g/ha: 100%
[11]; dosage 320 g/ha
  pest or weed control at 320 g/ha: 100%
[12]
  pest or weed control at 20 g/ha: 80%
[12]; dosage 80 g/ha
  pest or weed control at 80 g/ha: 80%
[13]
  pest or weed control at 80 g/ha: 90%
[13]; 320 g/ha
  pest or weed control at 320 g/ha: 100%
[14]
  pest or weed control at 20 g/ha: 80%
[14]; 80 g/ha
  pest or weed control at 80 g/ha: 90%
[15]; [29]
  pest or weed control at 320 g/ha: 90%
[16]
  pest or weed control at 20 g/ha: 80%
[16]; dosage 80 g/ha
  pest or weed control at 80 g/ha: 90%
[17]
  pest or weed control at 80 g/ha: 100%
[17]; [29]
  pest or weed control at 320 g/ha: 100%
[18]; 80 g/ha
  pest or weed control at 80 g/ha: 90%
[27]
  pest or weed control at 320 g/ha: 90%
[19]
  pest or weed control at 20 g/ha: 90%
[19]; 80 g/ha
  pest or weed control at 80 g/ha: 90%
[20]
  pest or weed control at 80 g/ha: 100%
[20]; dosage 320 g/ha
  pest or weed control at 320 g/ha: 100%
[21]
  pest or weed control at 20 g/ha: 80%
[21]; dosage 80 g/ha
  pest or weed control at 80 g/ha: 90%
[22]
  pest or weed control at 20 g/ha: 80%
[22]; dosage 80 g/ha
  pest or weed control at 80 g/ha: 80%
[24]
  pest or weed control at 80 g/ha: 100%
[24]; dosage 320 g/ha
  pest or weed control at 320 g/ha: 100%
